Assay results from US20240116985A1, “STAPLED PEPTIDES AND METHODS THEREOF” (priority 2020, published 2024).
Like-named read-outs stand apart in the source and are kept apart here.

Key:
[1] = target: T1, full-length beta-Catenin (Uniprot ID P35222) (Homo sapiens, UniProt P35222); assay: Fluorescence polarization IC50 (beta-catenin / 5FAM-TCF4 10-53 competition); format: binding; settings: fluorescence polarization; read-out: beta-Catenin FP IC50
T1 construct: 10 nM full-length beta-Catenin (Uniprot ID P35222)
T1 sequence (P35222 1-781): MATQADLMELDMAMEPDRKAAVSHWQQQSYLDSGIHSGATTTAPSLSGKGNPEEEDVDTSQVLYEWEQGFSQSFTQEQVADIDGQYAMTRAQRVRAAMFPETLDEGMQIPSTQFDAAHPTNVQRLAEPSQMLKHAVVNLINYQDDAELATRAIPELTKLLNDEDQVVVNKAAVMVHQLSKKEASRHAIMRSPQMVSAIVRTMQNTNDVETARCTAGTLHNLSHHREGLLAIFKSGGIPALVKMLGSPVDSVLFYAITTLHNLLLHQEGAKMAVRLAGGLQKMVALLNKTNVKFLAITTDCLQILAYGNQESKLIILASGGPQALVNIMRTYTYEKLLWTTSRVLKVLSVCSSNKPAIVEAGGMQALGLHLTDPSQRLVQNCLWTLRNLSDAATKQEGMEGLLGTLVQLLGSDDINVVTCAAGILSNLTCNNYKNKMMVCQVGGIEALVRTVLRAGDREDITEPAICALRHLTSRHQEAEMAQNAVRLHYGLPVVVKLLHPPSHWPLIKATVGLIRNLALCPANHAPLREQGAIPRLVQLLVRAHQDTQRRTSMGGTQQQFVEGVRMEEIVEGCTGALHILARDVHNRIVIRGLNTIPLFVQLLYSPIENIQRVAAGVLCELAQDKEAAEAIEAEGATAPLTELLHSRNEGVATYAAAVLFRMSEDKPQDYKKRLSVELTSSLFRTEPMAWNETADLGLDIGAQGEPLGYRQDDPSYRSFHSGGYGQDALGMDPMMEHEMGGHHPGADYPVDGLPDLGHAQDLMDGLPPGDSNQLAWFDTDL

[2] = target: T2, beta-catenin/TCF4 engagement (Homo sapiens, UniProt P35222); assay: Nano-BRET target engagement assay (B-cat-Halo & TCF4-Luc in HEK293 cells); format: cell-based; settings: read-out: NanoBRET Abs IC50
T2 construct: expressed in transfected cells; host or cells: HEK293
T2 sequence (P35222 1-781): T1 sequence (P35222 1-781)

| IC50 [1] [µM] | IC50 [2] [µM] | IC50 ([2]; absolute IC50) [µM] | Structure (SMILES) |
| --- | --- | --- | --- |
| 0.011 | 5.9 |  | CC(=O)N1CCC[C@]12CC=CCCCC1(CCCC=CCCCOC(=O)N3CC[C@@](C(=O)N[C@@H](Cc4ccsc4)C(=O)N[C@@H](Cc4csc5ccccc45)C(=O)N[C@H](C)C(N)=O)(C3)NC(=O)[C@H](CC(C)C)NC(=O)[C@H](Cc3ccccc3)NC(=O)[C@H](C)NC(=O)[C@H](C)NC(=O)[C@H](Cc3cccc(C(=O)O)c3)NC(=O)[C@H](CC(=O)O)NC1=O)NC(=O)[C@H](CC(C)(C)C)NC(=O)[C@H](CC(=O)O)NC2=O (stereo partly drawn) [I-2090, Ac-PL3-Asp-Npg-B5-Asp-3COOHF-Ala-Ala-Phe-Leu-PyrS2-3Thi-BztA-dAla-NH2] |
| 0.033 |  | 5.9 | CC(=O)N1CCC[C@]12CC=CCCCC1(CCCC=CCCCOC(=O)N3CC[C@@](C(=O)N[C@@H](Cc4ccccc4C(F)(F)F)C(=O)N[C@H](C(=O)N[C@@H](CCC(N)=O)C(N)=O)[C@H](C)c4csc5ccccc45)(C3)NC(=O)[C@H](CC(C)C)NC(=O)[C@H](Cc3ccccc3)NC(=O)[C@H](C)NC(=O)[C@H](C)NC(=O)[C@H](Cc3cccc(C(=O)O)c3)NC(=O)[C@H](CC(=O)O)NC1=O)NC(=O)[C@H](CC(C)(C)C)NC(=O)[C@H](CC(=O)O)NC2=O (stereo partly drawn) [I-2458, Ac-PL3-Asp-Npg-B5-Asp-3COOHF-Ala-Ala-Phe-Leu-PyrS2-2F3MeF-RbMeBztA-Gln-NH2] |
| 0.013 |  | 26.2 | CC(=O)N1CCC[C@]12CC=CCCCC1(CCCC=CCCCOC(=O)N3CC[C@@](C(=O)N[C@@H](Cc4ccccc4Cl)C(=O)N[C@@H](Cc4csc5ccccc45)C(=O)N[C@@H](CCC(N)=O)C(N)=O)(C3)NC(=O)[C@H](CC(N)=O)NC(=O)[C@H](Cc3ccccc3)NC(=O)[C@H](C)NC(=O)[C@H](C)NC(=O)[C@H](CN(CC(=O)O)C(C)C)NC(=O)[C@H](CC(=O)O)NC1=O)NC(=O)[C@H](CC(C)(C)C)NC(=O)[C@H](CC(=O)O)NC2=O (stereo partly drawn) [I-1451, Ac-PL3-Asp-Npg-B5-Asp-[iPr]GA-Ala-Ala-Phe-Asn-PyrS2-2C1F-BztA-Gln-NH2] |
| 0.017 |  | 10.4 | CCCC[C@@H]1NC(=O)[C@H](CN(CC(=O)O)CC(F)(F)F)NC(=O)[C@H](CC(=O)O)NC(=O)C2(CCCC=CCCCOC(=O)N3CC[C@@](C(=O)N[C@@H](Cc4ccccc4Cl)C(=O)N[C@@H](Cc4csc5ccccc45)C(=O)N[C@@H](CCC(N)=O)C(N)=O)(C3)NC(=O)[C@H]([C@@H](C)O)NC(=O)[C@H](Cc3ccccc3)NC(=O)[C@H](C)NC1=O)CCCC=CC[C@]1(CCCN1C(C)=O)C(=O)N[C@@H](CC(=O)O)C(=O)N[C@@H](CC(C)(C)C)C(=O)N2 (stereo partly drawn) [I-1692, Ac-PL3-Asp-Npg-B5-Asp-TfeGA-nLeu-Ala-Phe-Thr-PyrS2-2C1F-BztA-Gln-NH2] |
| 0.03 | 9.5 |  | CC(=O)N1CCC[C@]12CC=CCCCC1(CCCC=CCCCOC(=O)N3CC[C@@](C(=O)N[C@@H](Cc4ccccc4Cl)C(=O)N[C@@H](Cc4csc5ccccc45)C(=O)N[C@@H](Cc4ccccc4)C(N)=O)(C3)NC(=O)[C@H](CC(N)=O)NC(=O)[C@H](Cc3ccccc3)NC(=O)[C@H](C)NC(=O)[C@H](C)NC(=O)[C@H](Cc3cccc(C(=O)O)c3)NC(=O)[C@H](CC(=O)O)NC1=O)NC(=O)[C@H](CC(C)(C)C)NC(=O)[C@H](CC(=O)O)NC2=O (stereo partly drawn) [I-2033, Ac-PL3-Asp-Npg-B5-Asp-3COOHF-Ala-Ala-Phe-Asn-PyrS2-2C1F-BztA-Phe-NH2] |
| 0.035 | 26.2 |  | CC(=O)N1CCC[C@]12CC=CCCCC1(CCCC=CCCCOC(=O)N3CC[C@@](C(=O)N[C@@H](Cc4ccccc4Cl)C(=O)N[C@@H](Cc4csc5ccccc45)C(=O)N[C@@H](Cc4ccccc4)C(N)=O)(C3)NC(=O)[C@H](CO)NC(=O)[C@H](Cc3ccccc3)NC(=O)[C@H](C)NC(=O)[C@H](C)NC(=O)[C@H](Cc3cccc(C(=O)O)c3)NC(=O)[C@H](CC(=O)O)NC1=O)NC(=O)[C@H](CC(C)(C)C)NC(=O)[C@H](CC(=O)O)NC2=O (stereo partly drawn) [I-2029, Ac-PL3-Asp-Npg-B5-Asp-3COOHF-Ala-Ala-Phe-Ser-PyrS2-2C1F-BztA-Phe-NH2] |
| 0.007 | 16.4 |  | CC(=O)N1CCC[C@]12CC=CCCCC1(CCCC=CCCCOC(=O)N3CC[C@@](C(=O)N[C@@H](Cc4ccsc4)C(=O)N[C@@H](Cc4csc5ccccc45)C(=O)N[C@@H](CCC(N)=O)C(N)=O)(C3)NC(=O)[C@H](Cn3cc(CN4CCOCC4)nn3)NC(=O)[C@H](Cc3ccccc3)NC(=O)[C@H](C)NC(=O)[C@H](C)NC(=O)[C@H](CN(CC(=O)O)CC(F)(F)F)NC(=O)[C@H](CC(=O)O)NC1=O)NC(=O)[C@H](CC(C)(C)C)NC(=O)[C@H](CC(=O)O)NC2=O (stereo partly drawn) [I-1867, Ac-PL3-Asp-Npg-B5-Asp-TfeGA-Ala-Ala-Phe-[MorphCH2]TriAzDap-PyrS2-3Thi-BztA-Gln-NH2] |
| 0.016 |  | > 20 | CC(=O)N1CCC[C@]12CC=CCCCC1(CCCC=CCCCOC(=O)N3CC[C@@](C(=O)N[C@@H](Cc4ccsc4)C(=O)N[C@@H](Cc4csc5ccccc45)C(=O)N[C@@H](CCC(N)=O)C(N)=O)(C3)NC(=O)[C@H](CC(C)C)NC(=O)[C@H](Cc3ccccc3)NC(=O)[C@H](CCCCNC(=O)COCCOCCNC(=O)C34CC5(C)CC(C)(CC(C)(C5)C3)C4)NC(=O)[C@H](C)NC(=O)[C@H](CC(=O)O)NC(=O)[C@H](CC(=O)O)NC1=O)NC(=O)[C@H](CC(C)(C)C)NC(=O)[C@H](CC(=O)O)NC2=O (stereo partly drawn) [I-1476, Ac-PL3-Asp-Npg-B5-Asp-Asp-Ala-[Me3AdamantC-PEG2]-Lys-Phe-Leu-PyrS2-3Thi-BztA-Gln-NH2] |
| 0.062 | 21 |  | CC(=O)N1CCC[C@]12CC=CCCCC1(CCCC=CCCCOC(=O)N3CC[C@@](C(=O)N[C@@H](Cc4ccsc4)C(=O)N[C@@H](Cc4csc5ccccc45)C(=O)N[C@@H](CC(C)(C)C)C(N)=O)(C3)NC(=O)[C@H](CC(C)C)NC(=O)[C@H](Cc3ccccc3)NC(=O)[C@H](C)NC(=O)[C@H](CO)NC(=O)[C@H](Cc3cccc(C(=O)O)c3)NC(=O)[C@H](CC(=O)O)NC1=O)NC(=O)[C@H](CC(C)(C)C)NC(=O)[C@H](CC(=O)O)NC2=O (stereo partly drawn) [I-2195, Ac-PL3-Asp-Npg-B5-Asp-3COOHF-Ser-Ala-Phe-Leu-PyrS2-3Thi-BztA-Npg-NH2] |
| 0.013 |  | 11.6 | CC(=O)N1CCC[C@]12CC=CCCCC1(CCCC=CCCCCCC[C@@](C)(C(=O)N[C@@H](Cc3ccccc3)C(=O)N[C@@H](Cc3csc4ccccc34)C(=O)N[C@@H](CCC(N)=O)C(N)=O)NC(=O)[C@H](CCC(N)=O)NC(=O)[C@H](Cc3ccccc3)NC(=O)[C@H](C)NC(=O)[C@H](C)NC(=O)[C@H](CCC(=O)O)NC(=O)[C@H](CC(=O)O)NC1=O)NC(=O)[C@H](Cc1ccccc1)NC(=O)[C@H](CC(=O)O)NC2=O (stereo partly drawn) [I-1549, Ac-PL3-Asp-Phe-B5-Asp-Glu-Ala-Ala-Phe-Gln-S8-Phe-BztA-Gln-NH2] |
| 0.005 | 11.1 |  | CC(=O)N1CCC[C@]12CC=CCCCC1(CCCC=CCCCOC(=O)N3CC[C@@](C(=O)N[C@@H](Cc4ccsc4)C(=O)N[C@@H](Cc4ccc(Cl)c(Cl)c4)C(=O)N[C@@H](CCC(N)=O)C(N)=O)(C3)NC(=O)[C@H](CC(N)=O)NC(=O)[C@H](Cc3ccccc3)NC(=O)[C@H](C)NC(=O)[C@H](C)NC(=O)[C@H](CC(=O)O)NC(=O)[C@H](CC(=O)O)NC1=O)NC(=O)[C@H](CC(C)(C)C)NC(=O)[C@H](CC(=O)O)NC2=O (stereo partly drawn) [I-2182, Ac-PL3-Asp-Npg-B5-Asp-Asp-Ala-Ala-Phe-Asn-PyrS2-3Thi-34C1F-Gln-NH2] |
| 0.034 |  | 6.4 | CC(=O)N1CCC[C@]12CC=CCCCC1(CCCC=CCCCOC(=O)N3CC[C@@](C(=O)N[C@@H](Cc4cccc(F)c4)C(=O)N[C@@H](Cc4csc5ccccc45)C(=O)N[C@@H](C)C(N)=O)(C3)NC(=O)[C@H](CC(C)C)NC(=O)[C@H](Cc3ccccc3)NC(=O)[C@H](C)NC(=O)[C@H](C)NC(=O)[C@H](Cc3cccc(C(=O)O)c3)NC(=O)[C@H](CC(=O)O)NC1=O)NC(=O)[C@H](CC(C)(C)C)NC(=O)[C@H](CC(=O)O)NC2=O (stereo partly drawn) [I-2261, Ac-PL3-Asp-Npg-B5-Asp-3COOHF-Ala-Ala-Phe-Leu-PyrS2-3FF-BztA-Ala-NH2] |
| 0.012 | 26.9 |  | CC(=O)N1CCC[C@]12CC=CCCCC1(CCCC=CCCCOC(=O)N3CC[C@@](C(=O)N[C@@H](Cc4ccsc4)C(=O)N[C@@H](Cc4csc5ccccc45)C(=O)N[C@@H](CCC(N)=O)C(N)=O)(C3)NC(=O)[C@H](CC(C)C)NC(=O)[C@H](Cc3cccc(C(=O)O)c3)NC(=O)[C@H](C)NC(=O)[C@H](C)NC(=O)[C@H](Cc3c[nH]cn3)NC(=O)[C@H](CC(=O)O)NC1=O)NC(=O)[C@H](CC(C)(C)C)NC(=O)[C@H](CC(=O)O)NC2=O (stereo partly drawn) [I-2123, Ac-PL3-Asp-Npg-B5-Asp-His-Ala-Ala-3COOHF-Leu-PyrS2-3Thi-BztA-Gln-NH2] |
